Assay results taken from US6770644B1, “Hydroxamic acid derivatives, process for the production thereof and drug containing the same as the active ingredient” (Ono Pharmaceuticals Co., Ltd., priority 1999, dated 2004).

Tests used:
[1] = system: IL-6 production from A549 cells; test: Inhibitory activity on IL-6 production from A549 cells (TNF-α stimulated, ELISA); assay type: cell-based; details: A549 cells (human lung epithelial cell line), TNF-α stimulation, 24 hours, read-out: 50% inhibitory concentration (IC50) on IL-6 production
Experimental: (1) The Measurement of an Inhibitory Activity on IL-6 Production from A549 Cells
1.5×10^4 of A549 cells (human lung epithelial cell line) were suspended in 100 μL of Dulbecco's Modified Eagle Medium (DMEM) containing 0.5% fetal bovine serum (abbreviated as FBS) and incubated for a day and night in 96 well-microplate. 20 μL of the test compound dissolved in dimethylsulfoxide (DMSO) at various concentrations and 80 μL of tumor necrosis factor-α (TNF-α (Genzyme Co., cat. No. TNF-H)) dissolved in serum-free DMEM at the concentration of 12.5 ng/mL were added thereto. After the incubation for 24 hours, the supernatant (100 μL) was collected to measure the amount of IL-6 being produced using enzyme linked immuno […] assay (ELISA) (R&D Systems Co., cat. No. D6050). Then the inhibitory activity of the test compound was calculated and the 50% inhibitory concentration (IC50) was determined.

[2] = system: IL-6 production from human synovial cells; test: Inhibitory activity on IL-6 production from human synovial cells (IL-1β stimulated, ELISA); assay type: cell-based; details: Synovial cell, synovial cells from rheumatoid arthritis patients, IL-1β stimulation, 24 hours, read-out: 50% inhibitory concentration (IC50) on IL-6 production
Experimental: (2) The Measurement of an Inhibitory Activity on IL-6 Production from Human Synovial Cells
3.0×10^3 of synovial cells from rheumatoid arthritis patients were suspended in 200 μL of DMEM containing 10% FBS and incubated for a day and night in 96 well-microplate, followed by the incubation for 5 hours in serum-free DMEM. 20 μL of the test compound dissolved in DMSO at various concentrations and 80 μL of interleukin-1β (IL-1β (Genzyme Co., cat. No. 80-3688-01)) dissolved in DMEM containing 2.5% fetal bovine serum at the concentration of 5 ng/mL were added thereto. After the incubation for 24 hours, the supernatant (100 μL) was collected to measure the amount of IL-6 being produced using ELISA (R&D Systems Co., cat. No. D6050). Then the inhibitory activity of the test compound was calculated and the 50% inhibitory concentration (IC50) was determined.

O=C(CCCC[C@@H](O)c1ccc(-c2ccc(Cl)cc2)cc1)NO [example 3]
IC50 [1]: 52 nM | IC50 [2]: 41 nM
